Patent publication US10076511B2, “Bisamide derivative of dicarboxylic acid as an agent for stimulating tissue regeneration and recovery of diminished tissue function” (TREAMID GmbH, priority 2015, dated 2018)
Marks after values point to notes of the source that are not given here.

Key:
Format in all cases: in vivo, rat
male Wistar rats [1] = experiment: Metabolic syndrome model in rats (cafeteria diet)
Description: Metabolic syndrome was simulated in male Wistar rats (260-280 g) by keeping animals on a high-fat diet (“cafeteria diet”) for 12 weeks. The “cafeteria diet” was balanced according to Current Protocols in Pharmacology [Current Protocols in Pharmacology (2005) Animal Models of Disease//Contributed by Petter Hedlund, Kenshi Matsumoto, and Karl-Erik Andersson]. The diet contained 25-35% of fats and 25-30% of digestible carbohydrates in addition to the standard diet of rodents. Treamid was administered at a dose of 0.5 mg/kg intragastrically once daily, every day from Week 7 to Week 11 of the diet. Reference drug Metformin was administered at a dose of 200 mg/kg intragastrically according to the same regimen.
The development of pathology and a therapeutic effect of Treamid were estimated by the following parameters: blood biochemical parameters (glucose, cholesterol, triglycerides (TG), HDL, LDL, atherogenicity index), glucose tolerance test, visceral fat weight, total number and percentage of motile sperm forms.
Glucose was determined with an OneNouch Select glucometer (Switzerland).
The levels of triglycerides, TCh and HDL were determined by using a diagnostic kit (Olvex Diagnosticum, Russia).
The level of LDL was determined by the formula 2. LDL=TCh−(HDL+TG/2.2) (1),
The atherogenicity index (AI) was calculated by the formula 3. AI=(TCh−HDL)/HDL (2),
The atherogenicity index was calculated for each animal individually, and then the arithmetic mean value of the group was calculated.
For the analysis of sperm, the animals were anesthetized with intraperitoneal injection of a mixture of Zolletil and Xyla (0.2 ml of Zoletil+0.8 ml Xyla) in a volume of 70 μl/100 g of weight. Epididymis was isolated. The epididymis head was cut off from the tail, weighed, 5 incisions were made (to improve the sperm yield), and placed in a tube containing 10 ml of phosphate buffered saline heated to 37° C. The tube was held at 37° C. for 10 minutes. Then, the tube was shaken on a shaker, 20 μl of the liquid was taken, applied to a glass slide heated to 37° C., and the number of motile sperm cells was assessed under a microscope. The calculation was performed up to 100 sperm cells.
The total number of sperm cells in a test tube with epididymis was calculated as follows: 20 μl of the liquid was taken after shaking and added to a tube containing 400 μl of physiological saline. After shaking the tubes, their contents (20 μl) were taken out and introduced into Goryaev chamber. The number of sperm cells was counted in 100 large squares. The number of sperm cells in the head of epididymis was calculated by the formula: Number of sperm cells=number of sperm cells in 100 large squares of Goryaev chamber*0.525(factor from the calculation of the dilution and the volume of Goryaev chamber)/weight of the epididymis head.

male rats = details: rat, in vivo
Description: The latter was simulated by a single injection of cytostatic drug Paclitaxel (Mitotax, Dr. Reddy's, India) to male rats (3 months of age). The choice of the drug was due to the fact that it is one of the medications that damage the precursors of spermatogenesis—stem cells.
Paclitaxel was administered to the animals of the control and test groups once intravenously at the maximum tolerated dose of 7.6 mg/kg. Treamid was administered to the animals of the experimental groups intragastrically at a dose of 5 mg/kg in the form of a suspension in 2% starch mucus for 15 days a month after the administration of Paclitaxel. The control animals received an equivalent volume of the solvent (2% starch mucus), instead of the test compound.
The colony-stimulating activity of the cells of the microenvironment of spermatogenic tissue (production of humoral regulators of spermatogenesis by Sertoli cells) was determined as follows. The above-described procedure was used to prepare a testis homogenate from which an adherent fraction of cells was isolated. The adherent cells were cultured for 24 hours in complete culture medium at 37° C., 5% CO2 and 100% air humidity. A day later, the supernatant was collected, which was stored at a temperature of […]. The level of humoral factors of spermatogenesis in the supernatant was tested by the test system of CFU-Sp of the testes of intact rats. […]

Wistar rats = experiment: Pair-test of sexual behavior, rats of late reproductive (14 months) and presenile (19 months) age; details: 14-month rats
Description: (§1) Erectile dysfunction was simulated by using animals of late and senile reproductive age (14-19 months). Suppression of sexual motivation was simulated by using animals of late reproductive age (14 months).
Experiments on studying the effect of Treamid on copulatory activity were carried out on 76 Wistar rats (14 months and 19 months of age). Treamid was administered intragastrically for 14 days at a dose of 5 mg/kg. Reference drug Sildenafil (100 mg, PFIZER PGM, France) was also administered intragastrically, which corresponded to clinical use, at a dose of 3 mg/kg twice a week. The sexual activity was estimated by the pair-test of sexual behavior. For this purpose female rats in the estrus stage caused by a preliminary 4-fold injection of the Synestrel were involved in the experiment. The effectiveness of Treamid was estimated by the following indices: latency until the first mating attempt (LFM), the number of mating attempts (MN), and the number of ejaculations (EN). The obtained data were compared with those of the same animals before the administration of Treamid (the first test) and with the data in the control group (the second test).

male Wistar rats [2] = experiment: Sexual incentive motivation test, rats of late reproductive age; details: 14-month rats
Description: as §1
Experiments on studying the effect of Treamid on sexual motivation were carried out on 40 male Wistar rats (14 months of age). A model for a targeted search for novel agents for the therapy of this pathology was used as an experimental model of sexual incentive motivation in rats [Xi Chu, Ekaterina S. Zhavbert, Julia L. Dugina, Irina A. Kheyfets, Svetlana A. Sergeeva, Oleg I. Epstein, Anders Agmo Sindenafil and a compound stimulating endothelial NO synthase modity sexual incentive motivation and copulatory behavior in male wistar and fisher 344//J Sex Med.—2008.—5.—P. 2085-2009]. This model is based on the fact that rats are social animals and seek not only sexual, but also social contacts. The assessment of sexual motivation involves determining the time spent near a sexual stimulus and the score of preference in animals without direct contact with “social” and “sexual” stimuli. The sexual stimulus was a female rat in estrus stage, and the social stimulus was a male rat.

male Wistar rats [3] = experiment: Pair-test of sexual behavior, seasonal suppression of copulatory activity
Description: Seasonal suppression of reproductive activity was simulated by carrying out the experiment in the winter period (end of December). As a background group, intact animals (3 months of age) were tested in June.
The experiments were carried out on 27 male Wistar rats of reproductive age (3 months). Treamid at a dose of 5 mg/kg and reference drug Sildenafil (at a dose of 3 mg/kg) were administered intragastrically […], once daily for 15 days. The sexual activity was estimated by the pair-test of sexual behavior. The test was carried out twice: before administration and one hour after the last administration of Treamid. The rats of the control groups receiving the solvent were tested at the same time as the animals of the experimental groups.
The experiment also comprised the use of female rats in the estrus stage caused by a preliminary 4-fold injection of the Synestrel. The effectiveness of Treamid was estimated by the following indices: latency until the first mating attempt (LFM), the number of mating attempts (MN), and the number of ejaculations (EN). The obtained data were compared with those of the same animals before the administration of the tested compound and with the data of the control group (the second test).

[4] = Treamid 0.5 mg/kg, Metformin 200 mg/kg intragastrically Week 7-11 of high-fat diet
[5] = high-fat diet for 12 weeks, Treamid 0.5 mg/kg, Metformin 200 mg/kg
[6] = high-fat diet, Treamid 0.5 mg/kg, Metformin 200 mg/kg
[7] = First test, before administration of drugs
[8] = Second test, after 14-day administration course, Treamid 5 mg/kg, Sildenafil 3 mg/kg
[9] = Second test, after administration of the test compound, Treamid 5 mg/kg, Sildenafil 3 mg/kg, 14 days
[10] = first test, before administration
[11] = first test, before administration, winter period
[12] = second test, one hour after last administration, Treamid 5.0 mg/kg, Sildenafil 3 mg/kg intragastrically, 15 days

CN(C)C(=N)N=C(N)N [Metformin, reference compound] was tested, and the “Glucose level in the blood of male rats, mmol/L” value (“Glucose level … mmol/L” for short) (male Wistar rats [1]; 3 weeks after the drug administration, Treamid 0.5 mg/kg, Metformin 200 mg/kg) was 6.9 ± 0.3*& mmol/L, the “Glucose level … mmol/L” value (male Wistar rats [1]; 5 weeks after the drug administration, Treamid 0.5 mg/kg, Metformin 200 mg/kg) was 8.0 ± 0.2*& mmol/L and the “Relative weight of visceral fat, Fat near the intestine” value (male Wistar rats [1]; [4]) was 1.07 ± 0.08 % based on body weight. The “Relative weight of visceral fat, Fat near the kidneys” value (male Wistar rats [1]; [4]) was 0.52 ± 0.05& % based on body weight, the “Relative weight of visceral fat, Fat near the testes” value (male Wistar rats [1]; [4]) was 0.98 ± 0.12 % based on body weight and the “Relative weight of visceral fat, Total fat” value (male Wistar rats [1]; [4]) was 2.57 % based on body weight. For the same molecule, the “Glucose level in the blood of male rats” value (male Wistar rats [1]; before administration of drugs (Week 6 of diet)) was 6.2 ± 0.1 mmol/L, the Atherogenicity index (male Wistar rats [1]; [5]) was 0.6 ± 0.1& and the “HDL, mM/l” value (male Wistar rats [1]; [5]) was 1.8 ± 0& mM/l. For the same molecule, the “LDL, mM/l” value (male Wistar rats [1]; [5]) was 0.7 ± 0.3& mM/l, the “Total cholesterol, mM/l” value (male Wistar rats [1]; [5]) was 2.8 ± 0.3 mM/l and the “Triglycerides, mM/l” value (male Wistar rats [1]; [5]) was 0.7 ± 0.1& mM/l. The “Percentage of motile sperm forms” value (male Wistar rats [1]; [6]) was 24.43 ± 3.99 %, the “Total number of sperm cells” value (male Wistar rats [1]; [6]) was 276.6 ± 44.6& and the “Glucose level … mmol/L” value (male Wistar rats [1]; one week after the drug withdrawal, Treamid 0.5 mg/kg, Metformin 200 mg/kg) was 7.8 ± 0.6& mmol/L. The “increase of the percentage of motile sperm forms” value (male Wistar rats [1]; vs. high-fat diet control) was “did not affect” and the “increase of the total number of sperm cells” value (male Wistar rats [1]; vs. high-fat diet control) was 1.8 times.

For CC(=O)O[C@H]1C(=O)[C@@]2(C)[C@H]([C@H](OC(=O)c3ccccc3)[C@]3(O)C[C@H](OC(=O)[C@H](O)[C@@H](NC(=O)c4ccccc4)c4ccccc4)C(C)=C1C3(C)C)[C@]1(OC(C)=O)CO[C@@H]1C[C@@H]2O [Paclitaxel, reference compound], the “colony stimulating activity of conditioned media of testis cells, CFU-Sp, per 2 × 10^5 (M; SD, n = 10)” value (male rats) was 3.0; 0.53* per 2 × 10^5.

With CCCc1nn(C)c2c(=O)[nH]c(-c3cc(S(=O)(=O)N4CCN(C)CC4)ccc3OCC)nc12 [Sildenafil, reference compound] the “EN (the number of ejaculations)” value (Wistar rats; [7]) was 0.00 ± 0.00, the “LFM (latency until the first mount)” value (Wistar rats; [7]) was 610.08 ± 88.34 and the “MN (the number of mounts)” value (Wistar rats; [7]) was 1.58 ± 0.56. The “EN (the number of ejaculations)” value (Wistar rats; [8]) was 0.00 ± 0.00, the “MN (the number of mounts)” value (Wistar rats; [8]) was 6.27 ± 1.27⋄# and the “LFM (latency until the first mount)” value (Wistar rats; Second test, after 14-day administration course, Treamid 5 mg/kg, Sildenafil 3 mg/kg intragastrically) was 171.09 ± 78.08⋄*. The “A, sec (time spent in the sexual stimulus zone)” value (male Wistar rats [2]; [9]) was 143.18 ± 48.64 s, the “PS, s. u. (preference score)” value (male Wistar rats [2]; [9]) was 0.41 ± 0.12 s. u and the “effect on sexual motivation” value (male Wistar rats [2]; Treamid 5 mg/kg, Sildenafil 3 mg/kg) was “had no effect”. For the same molecule, the “A, sec (time spent in the sexual stimulus zone)” value (male Wistar rats [2]; [10]) was 166.83 ± 26.27 s, the “B, sec (time spent in the social stimulus zone)” value (male Wistar rats [2]; [10]) was 113.58 ± 22.60 s and the “PS, s. u. (preference score)” value (male Wistar rats [2]; [10]) was 0.59 ± 0.06 s. u. For the same molecule, the “effect on sexual behavior under seasonal suppression” value (male Wistar rats [3]; Sildenafil 3 mg/kg) was “did not have a significant effect”, the “LFM” value (male Wistar rats [3]; [11]) was 473.00 ± 137.58 s and the “the number of ejaculations, %” value (male Wistar rats [3]; [11]) was 0%. The “the number of mounts, abs.” value (male Wistar rats [3]; [11]) was 3.33 ± 1.27 abs, the “LFM” value (male Wistar rats [3]; [12]) was 308.22 ± 117.73 s and the “the number of ejaculations, %” value (male Wistar rats [3]; [12]) was 0%. For the same molecule, the “the number of mounts, abs.” value (male Wistar rats [3]; [12]) was 5.67 ± 1.76 abs.
